Assay results reported in paper PMC10590056, “Design and synthesis of cabotegravir derivatives bearing 1,2,3-triazole and evaluation of anti-liver cancer activity” (Frontiers in Pharmacology, 2023).
Where “and” joins values, the source holds several entries; their conditions need not be identical. Identical values can stand only once. Like-named read-outs stand apart in the source and are kept apart here.

Tests used:
Type in all cases: cell-based
HeLa cells = assay: MTT assay for cell proliferation, HeLa; set-up: key to Inhibitory rate: inhibition rate = 1 - mean A490 sample/mean A490 control (fraction)
How it was run: (§1)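 Cells grown in DMEM with 10% FBS at 37 °C, 5% CO2, seeded at 10^5 cells/mL and exposed to KJ-5 or KJ-12 at 0–32 μM for 48 h. MTT added for 4 h, formazan dissolved in DMSO, A490 read; inhibition = (1 − sample/control A490) × 100%.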

MCF-7 cells = assay: MTT assay for cell proliferation, MCF-7; set-up: key to Inhibitory rate / Inhibition rate: inhibition rate = 1 - mean A490 sample/mean A490 control (fraction)
How it was run: as §1

HepG2 cells [1] = assay: Annexin V-FITC/PI staining for cell apoptosis (flow cytometry); conditions: 24 h; for Proportion of apoptotic cells: Annexin-V/PI
Procedure: HepG2 cells were plated in a 6-well plate at a density of 5 × 10^6 cells/well and incubated for 24 h. Then, the original culture medium was replaced with 2 mL DMEM containing KJ-5 or KJ-12 (2, 4, and 8 μM) and incubated for 24 h. After incubation with KJ-5 or KJ-12, the cells were washed with cold PBS and then resuspended in 100 µL binding buffer at a concentration of 1 × 10^6 cells/mL. Then, 5 μl of FITC Annexin V and 5 µl of PI were added to the solution. The cells were gently vortexed and incubated for 15 min at room temperature (25°C) in the dark. Subsequently, 400 µL binding buffer was added to each tube, and the samples were analyzed by flow cytometry (BD Accuri™ C6 Plus) within 1 h.

HepG2 cells [2] = assay: DAPI staining for cell apoptosis (morphology); conditions: HepG2, 2, 4, 8 μM, 24 h
Procedure: Apoptotic morphological changes were determined by DAPI staining. HepG2 cells were seeded in a 48-well plate and treated with different concentrations of KJ-5 and KJ-12 (2, 4, and 8 μM) for 24 h. After 24 h, they were then washed with PBS and fixed with 4% paraformaldehyde for 20 min. Subsequently, they were then washed with PBS and treated with DAPI (10 μg/mL) at 37°C for 5 min. After washing with PBS, the cells were resuspended in PBS for the rest of the experiment. A fluorescence microscope was used to observe the apoptotic morphological changes.

HepG2 cells [3] = assay: Cell cycle analysis (PI, flow cytometry); conditions: 24 h
Procedure: HepG2 cells were seeded in a 6-well plate at a density of 5 × 10^6 cells/well and treated with either KJ-5 or KJ-12 at concentrations of 2, 4, or 8 μM for 24 h. Cells were then collected and responded in […] of cold PBS. Subsequently, 700 μL of cold 70% ethanol was added to the cells and gently mixed by inversion on ice for 1 h. Cells were then centrifuged at 2,000 rpm for 10 min, washed once with 2 mL of cold PBS, and the supernatant was discarded. The cell pellet was resuspended in 250 μL of cold PBS, followed by the addition of 10 μL of RNase at a final concentration of 0.4 mg/mL and incubated at 37°C for 30 min. An additional 250 μL of PBS was added, followed by the addition of 5 μL of PI solution at a final concentration of 10 μg/mL. The samples were incubated […] in the dark overnight at 4°C. Finally, the samples were analyzed by flow cytometry.

HepG2 cells [4] = assay: Transwell migration assay (without Matrigel); conditions: HepG2, 24 h treatment, vs control
Procedure: (§2) HepG2 cells were treated with either KJ-5 or KJ-12 for 24 h. Then, the cells were suspended and seeded into the upper chamber of a 24-well Transwell plate (Corning Inc., United States) in serum-free medium. The cells were cultured for 24 h at 37°C; a medium containing 20% FBS as a chemoattractant was added to the lower chamber. HepG2 cells that had invaded through the membrane were fixed with 4% paraformaldehyde for 20 min and stained with 0.1% crystal violet. Five random fields were then imaged and quantified using an inverted fluorescence microscope (Axio Observer3, Germany). To assess invasion, transwell assays were performed in a similar manner, with the exception of coating the upper chamber of the Transwell with 100 μL of diluted Matrigel solution per well.

HepG2 cells [5] = assay: Transwell invasion assay (Matrigel); conditions: HepG2, 24 h treatment, vs control
Procedure: as §2

[6] = MCF-7, fraction, per experiment

With `COc1c2n(cc(C(=O)Nc3cccc(-c4cn(-c5cc(C(F)(F)F)cc(C(F)(F)F)c5)nn4)c3)c1=O)C[C@H]1OC[C@H](C)N1C2=O` [KJ-5] the Inhibitory rate (HeLa cells; Hela, group 1 (concentration), fraction, single experiments) was 0.2915 and 0.2462 and 0.2143, the ODtreated/ODcontrol (HeLa cells; Hela, group 1 (concentration), single experiments) was 0.7085 and 0.7538 and 0.7857 and the Inhibitory rate (HeLa cells; Hela, group 2 (concentration), fraction, single experiments) was 0.3879 and 0.3569 and 0.2882. The ODtreated/ODcontrol (HeLa cells; Hela, group 2 (concentration), single experiments) was 0.6121 and 0.6431 and 0.7118, the Inhibitory rate (HeLa cells; Hela, group 4 (concentration), fraction, single experiments) was 0.418 and 0.3669 and 0.3302 and the ODtreated/ODcontrol (HeLa cells; Hela, group 4 (concentration), single experiments) was 0.582 and 0.6331 and 0.6698. The Inhibitory rate (HeLa cells; Hela, group 8 (concentration), fraction, single experiments) was 0.5915 and 0.5007 and 0.5011, the ODtreated/ODcontrol (HeLa cells; Hela, group 8 (concentration), single experiments) was 0.4085 and 0.4993 and 0.4989 and the Inhibitory rate (HeLa cells; Hela, group 16 (concentration), fraction, single experiments) was 0.834 and 0.8197 and 0.8242. The ODtreated/ODcontrol (HeLa cells; Hela, group 16 (concentration), single experiments) was 0.166 and 0.1803 and 0.1758, the Inhibitory rate (HeLa cells; Hela, group 32 (concentration), fraction, single experiments) was 0.8525 and 0.86 and 0.8737 and the ODtreated/ODcontrol (HeLa cells; Hela, group 32 (concentration), single experiments) was 0.1475 and 0.14 and 0.1263. For the same molecule, the IC50 (HeLa cells; Hela, one of three experiments, unit inferred, read-out: IC50, single experiment, Hela) was 5.87 µM, the Inhibitory rate (HeLa cells; Hela, fraction, per experiment) was 0.8059 and 0.7883 and 0.7664 and the ODtreated/ODcontrol (HeLa cells; Hela, fraction, per experiment) was 0.1941 and 0.2117 and 0.2336. For the same molecule, the IC50 (HeLa cells; Homo sapiens, HeLa, 48 h, HeLa, 48 h, MTT, read-out: IC50 HeLa) was 5.02 ± 0.94 µM, the IC50 (HeLa cells; Homo sapiens, HeLa, one of three experiments, unit inferred, read-out: IC50, single experiment, Hela) was 5.16 µM and the inhibition at 16 µM (HeLa cells; Homo sapiens, preliminary screening, Hela, 16 μM, 48 h, mean±SD, unit inferred, read-out: Inhibition rate (16μM), 48 h, Hela) was 79.4 ± 1.04%. The IC50 (MCF-7 cells; Homo sapiens, MCF7, 48 h, MCF-7, 48 h, MTT, read-out: IC50 MCF-7) was 8.41 ± 0.14 µM, the IC50 (MCF-7 cells; Homo sapiens, MCF7, MCF-7, one of three experiments, unit inferred, read-out: IC50, single experiment, MCF-7) was 8.56 µM and the inhibition at 16 µM (MCF-7 cells; Homo sapiens, MCF7, preliminary screening, MCF-7, 16 μM, 48 h, mean±SD, unit inferred, read-out: Inhibition rate (16μM), 48 h, MCF-7) was 62.6 ± 1.76%. For the same molecule, the Inhibitory rate (MCF-7 cells; MCF-7, group 1 (concentration), fraction, single experiments) was 0.147 and 0.1313 and 0.1401, the ODtreated/ODcontrol (MCF-7 cells; MCF-7, group 1 (concentration), single experiments) was 0.853 and 0.8687 and 0.8599 and the Inhibitory rate (MCF-7 cells; MCF-7, group 2 (concentration), fraction, single experiments) was 0.1769 and 0.1986 and 0.2186. The ODtreated/ODcontrol (MCF-7 cells; MCF-7, group 2 (concentration), single experiments) was 0.8231 and 0.8014 and 0.7814, the Inhibitory rate (MCF-7 cells; MCF-7, group 4 (concentration), fraction, single experiments) was 0.4303 and 0.4175 and 0.4002 and the ODtreated/ODcontrol (MCF-7 cells; MCF-7, group 4 (concentration), single experiments) was 0.5697 and 0.5825 and 0.5998. For the same molecule, the Inhibitory rate (MCF-7 cells; MCF-7, group 8 (concentration), fraction, single experiments) was 0.509 and 0.5265 and 0.5019, the ODtreated/ODcontrol (MCF-7 cells; MCF-7, group 8 (concentration), single experiments) was 0.491 and 0.4735 and 0.4981 and the Inhibitory rate (MCF-7 cells; MCF-7, group 16 (concentration), fraction, single experiments) was 0.5958 and 0.5893 and 0.6098. The ODtreated/ODcontrol (MCF-7 cells; MCF-7, group 16 (concentration), single experiments) was 0.4042 and 0.4107 and 0.3902, the Inhibitory rate (MCF-7 cells; MCF-7, group 32 (concentration), fraction, single experiments) was 0.7196 and 0.7385 and 0.7334 and the ODtreated/ODcontrol (MCF-7 cells; MCF-7, group 32 (concentration), single experiments) was 0.2804 and 0.2615 and 0.2666. For the same molecule, the IC50 (MCF-7 cells; MCF-7, one of three experiments, unit inferred, read-out: IC50, single experiment, MCF-7) was 8.29 µM and 8.37 µM, the Inhibitory rate (MCF-7 cells; [6]) was 0.6368 and the ODtreated/ODcontrol (MCF-7 cells; [6]) was 0.3632. The Inhibitory rate (MCF-7 cells; given as fraction, second of three experiments) was 0.6364, the Inhibition rate (MCF-7 cells; given as fraction, third of three experiments) was 0.6061 and the ODtreated/ODcontrol (MCF-7 cells; second of three experiments) was 0.3635. For the same molecule, the ODtreated/ODcontrol (MCF-7 cells; third of three experiments) was 0.3939, the “Proportion of apoptotic cells” value (HepG2 cells [1]; HepG2, 2 μM) was 21.8 ± 1.3% and the “Proportion of apoptotic cells” value (HepG2 cells [1]; HepG2, 4 μM) was 30.9 ± 1.4%. For the same molecule, the “Proportion of apoptotic cells” value (HepG2 cells [1]; HepG2, 8 μM) was 52.7 ± 1.7%, the “Cell apoptosis (in words)” value (HepG2 cells [1]; HepG2, 2, 4, 8 μM) was “significantly caused cell apoptosis in a concentration-dependent manner” and the “Apoptotic morphological changes, DAPI staining” value (HepG2 cells [2]) was “cell shrinkage, nuclear condensation, and chromatin fragmentation”. For the same molecule, the “Percentage of cells in the G1 phase” value (HepG2 cells [3]; HepG2, 2 μM) was 21.2%, the “Percentage of cells in the G2/M phase” value (HepG2 cells [3]; HepG2, 2 μM) was 50.4% and the “Percentage of cells in the G1 phase” value (HepG2 cells [3]; HepG2, 4 μM) was 15%. The “Percentage of cells in the G2/M phase” value (HepG2 cells [3]; HepG2, 4 μM) was 58.3%, the “Percentage of cells in the G1 phase” value (HepG2 cells [3]; HepG2, 8 μM) was 13.5% and the “Percentage of cells in the G2/M phase” value (HepG2 cells [3]; HepG2, 8 μM) was 62.6%. For the same molecule, the “Percentage of cells in the S phase (change vs control)” value (HepG2 cells [3]; HepG2, 2-8 μM) was “did not change significantly”, the “Migration of HepG2 cells (transwell without Matrigel)” value (HepG2 cells [4]) was “significantly impaired” and the “Invasion of HepG2 cells (transwell with Matrigel)” value (HepG2 cells [5]) was “significantly impaired”.
